This is an account of results in US9669005B2, “Use of naringenin in preparing drugs for preventing and/or treatment abdominal aortic aneurysm” (priority 2013, dated 2017).

Molecules are shown by their SMILES.

Data set [1] relates to abdominal aortic aneurysms in C57BL/6J mice with CaPO4 daubed infrarenal arteries. As to the kind of experiment: Abdominal aortic aneurysm model induced by CaPO4 daubed infrarenal aortas, naringenin or doxycycline gavage. It counts as in vivo. The settings on record: CaPO4 daubed C57BL/6 mice; daily gavage 7 days; naringenin 50 mg/kg, doxycycline 100 mg/kg; average ± SD; CaPO4 + water 1.40±0.19, NaCl 0.77±0.06. As to the method: 12-week old of male C57BL/6 mice were anesthetized via intraperitoneal injection of 0.1% pentobarbital sodium (injection according to body weight, […]). Infrarenal abdominal aortas were separated, and the separated infrarenal abdominal aortas were packaged by gauze (1 cm in width×3 cm in length) soaked in 0.5 M CaCl2 solution. After 10 minutes, the gauze was removed, gauze soaked in PBS was instead used to package the blood vessel for 5 min. CaCl2+and PO4^−3 in PBS can form CaPO4 crystal, that is, corresponding to daubing CaPO4 to the blood vessel. After packaging the blood vessel with gauze soaked in NaCl for 10 minutes, gauze soaked in PBS is instead used for 5 min, serving as NaCl daubed control group.
(§1) Gavage was started at the first day after surgery, and water, naringenin (50 mg/kg) (Sigma-Aldrich, St. Louis, Mo.) or doxycycline (100 mg/kg) (Sigma-Aldrich, St. Louis, Mo.) gavage were given on mice daily. Materials were removed from the mice 7 days after gavage. Mice were weighed, and blood was drawn from inner canthus by capillary, after centrifuged for 10 minutes at 6000 rotations, the supernatant was removed and blood fat was measured (kit is purchased from BIOSINO company). Then perfusion and washing were performed on mice using PBS. Blood vessels were separated, and four blood vessels were randomly chosen for each group for photographing. The results were shown in FIG. 1, wherein, NaCl was the group of daubing NaCl (n=11), CaPO4 was the group of daubing CaPO4 plus water feed (n=12), CaPO4+NGN was the group of daubing CaPO4 μlus naringenin gavage (n=11), and CaPO4+Dox was the group of daubing CaPO4 μlus doxycycline gavage (n=11).
The blood vessels were sliced, and the change of the diameters in infrarenal abdominal aortas of mice were identified by H.E. staining. […] The data in FIG. 2A were an average value±standard deviation.
The fracture degree of elastic lamina is also an index showing the severity of abdominal aortic aneurysms. The degradation of elastic lamina is divided into four grades. The first grade means that the degradation of elastic lamina is less than 25%, with the second grade of 25%-50%, the third grade of 50%-75%, and the fourth grade means the fracture is more than 75%. We used Gomori staining to identify the fracture situation of elastic lamina of infrarenal abdominal aortas of mice. […] The data in FIG. 2B were an average value±standard deviation.

Data set [2] in a line: Body weight and blood fat of CaPO4 treated C57BL/6J mice. The settings on record: CaPO4 treated C57BL/6J mice; gavage 7 days; naringenin 50 mg/kg, doxycycline 100 mg/kg. It counts as in vivo. As to the method: as §1

Regarding `C[C@H]1c2cccc(O)c2C(=O)C2=C(O)[C@]3(O)C(=O)C(C(N)=O)=C(O)[C@@H](N(C)C)[C@@H]3[C@@H](O)[C@@H]21` [doxycycline, reference compound], in data set [1], the “diameters of infrarenal abdominal aortas (H.E. staining)” value is on record as 0.99±0.18 mm. In data set [2], this compound yielded a Body weight of 21.0 ± 1.89 g, a Cholesterol of 3.49 ± 0.64 mmol and a Triglyceride of 1.07 ± 0.32 mmol.
